The supplement of paper PMC13380429

What was measured:
Settings in all cases: 72 h
Caco-2 [1] = assay: cell viability relative to DMSO; higher = less toxic
Calu-3 [2] = assay: as above
HepG2 [3] = assay: as above
U2OS [4] = assay: as above
Vero E6 [5] = assay: as above
Calu-3 [6] = assay: relative viability EC50 (midpoint between 100% and the lowest measured viability); higher = less toxic
Caco-2 [7] = assay: drug sensitivity score (DSS) for viability; higher = more toxic; extreme values may be limits of the assay
Calu-3 [8] = assay: as above
HepG2 [9] = assay: as above
U2OS [10] = assay: as above
Vero E6 [11] = assay: as above
Caco-2 [12] = assay: relative viability EC50 (midpoint between 100% and the lowest measured viability); higher = less toxic
U2OS [13] = assay: as above
Vero E6 [14] = assay: as above
HepG2 [15] = assay: as above

Compound	cell viability (Caco-2 [1]; 1 nM)	cell viability (Caco-2 [1]; 10 nM)	cell viability (Caco-2 [1]; 100 nM)	cell viability (Caco-2 [1]; 1000 nM)	cell viability (Caco-2 [1]; 10000 nM)	cell viability (Calu-3 [2]; 1 nM)	cell viability (Calu-3 [2]; 10 nM)	cell viability (Calu-3 [2]; 100 nM)	cell viability (Calu-3 [2]; 1000 nM)	cell viability (Calu-3 [2]; 10000 nM)	cell viability (HepG2 [3]; 1 nM)	cell viability (HepG2 [3]; 10 nM)	cell viability (HepG2 [3]; 100 nM)	cell viability (HepG2 [3]; 1000 nM)	cell viability (HepG2 [3]; 10000 nM)	cell viability (U2OS [4]; 1 nM)	cell viability (U2OS [4]; 10 nM)	cell viability (U2OS [4]; 100 nM)	cell viability (U2OS [4]; 1000 nM)	cell viability (U2OS [4]; 10000 nM)	cell viability (Vero E6 [5]; 1 nM)	cell viability (Vero E6 [5]; 10 nM)	cell viability (Vero E6 [5]; 100 nM)	cell viability (Vero E6 [5]; 1000 nM)	cell viability (Vero E6 [5]; 10000 nM)	relative viability EC50 (Calu-3 [6])	drug sensitivity score (Caco-2 [7])	drug sensitivity score (Calu-3 [8])	drug sensitivity score (HepG2 [9])	drug sensitivity score (U2OS [10])	drug sensitivity score (Vero E6 [11])	relative viability EC50 (Caco-2 [12])	relative viability EC50 (U2OS [13])	relative viability EC50 (Vero E6 [14])	relative viability EC50 (HepG2 [15])
CNc1nc(-c2ccc3c(N)n[nH]c3c2)cc(N2C[C@@H](C(=O)NC3CCCCC3)CC[C@H]2C)n1	106%	106%	102%	79%	58%	93.5%	93.3%	87.5%	77.3%	48.1%	103%	108%	101%	72.4%	53.9%	93.7%	101%	95.9%	91%	62.3%	97.1%	94.9%	98.6%	91%	71.9%	0.737 µM	4.8	5.9	5.7	3.2	2.3	–	–	–	–
COc1ccc(Cn2ccc3ccc(C(=O)NO)cc32)cc1	98%	97%	100%	101%	70.1%	103%	95.2%	96.8%	100%	86.7%	105%	102%	97.7%	94.2%	56.4%	97.9%	98.2%	97.5%	97%	72.4%	96.7%	100%	104%	94.8%	51.5%	> 10 µM	1.2	0.1	3.2	1.6	3.4	–	–	–	–
COc1ccc2[nH]cc(C3=CCNCC3)c2c1	90.7%	107%	99.6%	106%	98.4%	92.3%	90%	95.1%	96.1%	101%	–	–	–	–	–	95.7%	103%	96%	102%	98.8%	101%	98.7%	104%	105%	100%	> 10 µM	0	0	–	0	0	> 10 µM	> 10 µM	> 10 µM	–
COc1ccc2nc3[nH]nc(C)c3c(NCCOCCO)c2c1	103%	102%	89.6%	100%	96.8%	106%	107%	88.8%	94.7%	70%	104%	97.2%	102%	87.6%	75%	102%	102%	95.9%	105%	104%	106%	98%	102%	99.4%	91.9%	–	0	2.1	2.4	0	0	> 10 µM	> 10 µM	> 10 µM	> 10 µM
COc1cccc(-c2ccc(NC(=O)C3=C(C(=O)O)CCC3)c(F)c2)c1	96.4%	93.1%	103%	98.6%	78.8%	–	–	–	–	–	103%	89.4%	98.8%	97.5%	92.6%	99%	105%	96.8%	104%	96.2%	90.1%	92.2%	98%	95.8%	90.8%	–	0.9	–	0	0	0	> 10 µM	> 10 µM	> 10 µM	> 10 µM
Cc1cccc(-c2n[nH]cc2-c2ccc(F)c(-c3cnn(CCO)c3)c2)n1	93.3%	91.9%	99.7%	92.5%	91.5%	–	–	–	–	–	103%	94.1%	95.2%	106%	109%	103%	98.8%	95.7%	89.3%	92.6%	96.1%	101%	98%	93.4%	94.5%	–	0	–	0	0.1	0	> 10 µM	> 10 µM	> 10 µM	> 10 µM
O=C(O)c1cc2occc2[nH]1	91.3%	89%	94.2%	94.1%	94.6%	–	–	–	–	–	99.2%	104%	103%	92.6%	103%	98.6%	104%	99.5%	102%	98.7%	107%	104%	102%	99.8%	101%	–	0	–	0	0	0	> 10 µM	> 10 µM	> 10 µM	> 10 µM
Cc1cc(C(=O)O)sc1C(N)C(=O)O (configuration not stated) [3-MATIDA]	96.9%	105%	97.3%	99.4%	96.9%	–	–	–	–	–	96.4%	94.8%	83.2%	96.3%	91.8%	103%	110%	96.8%	102%	97.5%	92.6%	99.2%	95.2%	93.5%	98%	–	0	–	0	0	0	> 10 µM	> 10 µM	> 10 µM	> 10 µM
CN(C)CCN(C)CCc1ccc(Cl)c(Cl)c1 [BD-1047]	95.4%	102%	98.3%	94.6%	91.8%	–	–	–	–	–	98.3%	102%	96.2%	85.5%	89.9%	97.2%	102%	93.4%	97.5%	94.7%	94.5%	104%	96.8%	93.6%	97.4%	–	0	–	1.6	0	0	> 10 µM	> 10 µM	> 10 µM	> 10 µM
O=[N+]([O-])c1cnc(Sc2nnc(O)n2-c2ccc3c(c2)OCCO3)s1 [BI-78D3]	99.2%	102%	94%	88.3%	7%	–	–	–	–	–	103%	102%	95.8%	70.3%	1.4%	98.9%	98%	94.5%	97.9%	0.1%	101%	95.6%	99.3%	94.7%	0.4%	–	7.1	–	9.8	5.8	6.3	2.14 µM	3.02 µM	2.75 µM	1.4 µM
CN(c1ccc(NC(=O)Nc2ccccc2)cc1)S(=O)(=O)c1cnn(-c2ccc(F)cc2)c1 [BTT-3033]	101%	115%	96.3%	109%	100%	96.7%	104%	97.6%	97.5%	106%	–	–	–	–	–	104%	104%	101%	111%	99.8%	–	–	–	–	–	> 10 µM	0	0	–	0	–	> 10 µM	> 10 µM	–	–
COc1ccc(S(=O)(=O)N(C(C)=O)c2ccccc2/C=C/c2cc[n+]([O-])cc2)cc1 [HMN-214]	105%	89.6%	94.2%	60.3%	48.4%	101%	95%	105%	71.5%	60.4%	98.4%	105%	98.1%	40.3%	38%	97.5%	95.8%	96.9%	51.9%	29.3%	94.6%	97.9%	99.8%	41.8%	41%	–	8	5.3	11.3	9.8	10.7	0.41 µM	0.634 µM	0.324 µM	0.323 µM
CCOC(=O)[C@H](Cc1ccccc1)NC(=O)c1cc(Cl)c(OCCN2CCN(C)CC2)c(Cl)c1O [JTE-607]	90.9%	95.5%	99.8%	103%	76.1%	–	–	–	–	–	107%	109%	98.6%	56.8%	41.9%	99.9%	98.8%	95.7%	102%	80%	103%	99.1%	104%	101%	103%	–	0.7	–	8.4	0.5	0	> 10 µM	> 10 µM	> 10 µM	0.606 µM
CCNC(=O)CC[C@H](N)C(=O)O [L-theanine]	98.2%	95%	98.7%	93.1%	105%	–	–	–	–	–	95.8%	89.8%	95.5%	89.8%	99.4%	99.8%	103%	95.8%	101%	102%	95.8%	99%	105%	104%	88%	–	0	–	0	0	0	> 10 µM	> 10 µM	> 10 µM	> 10 µM
COc1ccc(C(=O)C2CCN(CC(=O)N(Cc3nc4c(c(=O)[nH]3)COCC4)CC3CC3)CC2)cc1 [NVP-TNKS656]	110%	96.7%	92.9%	109%	93.3%	95.3%	97.3%	70.3%	68.2%	82.7%	98.7%	106%	106%	106%	93.6%	99%	96.7%	91.5%	88.9%	90.6%	105%	101%	83.1%	63.1%	65.9%	–	0	9.5	0	0.3	8.7	> 10 µM	> 10 µM	–	> 10 µM
Cc1ccccc1CN1C2=NCCN2C(=O)C2=C1CCN(Cc1ccccc1)C2 [TIC10]	110%	106%	104%	93.7%	103%	98.9%	99.7%	98%	102%	92.4%	–	–	–	–	–	–	–	–	–	–	107%	106%	98.8%	99.5%	103%	> 10 µM	0	0	–	–	0	> 10 µM	–	> 10 µM	–
